Measurements published in patent US20260159520A1, “HETEROBIFUNCTIONAL COMPOUNDS AND METHODS OF TREATING DISEASE” (Halda Therapeutics OpCo, Inc., priority 2022, published 2026).

Experiments:
Format in all cases: cell-based
[1] = system: T-Rex 293 cell line SC cells having increased expression of progesterone receptor isoform B protein; assay: Cellular growth inhibition, T-Rex 293 SC cells with doxycycline (increased progesterone receptor isoform B expression); details: with 10 ng/mL doxycycline (increased progesterone receptor isoform B), 72 hours, CellTiter-Glo 2.0
Experimental: (§1) The following types of cells were prepared for this experiment: (i) a T-Rex 293 cell line having increased expression of progesterone receptor isoform B protein due to exposure to doxycycline and (ii) a T-Rex 293 cell line lacking increased expression of progesterone receptor isoform B protein. Ability of the test compounds to inhibit proliferation of the foregoing cell types was evaluated according to the procedures set forth below.
(§2) The doxycycline-inducible progesterone receptor isoform B protein expressing cell line was established using the following protocol: T-Rex 293 cells were purchased from Invitrogen (Cat #R71007) and transfected using Lipofectamine 2000 with the wild-type progesterone receptor B protein sequence cloned into the pcDNA4/TO vector. Transfected cells were selected using 400 μg/mL Zeocin (Invitrogen Cat #R25001). Following selection, single clones were raised and maintained in Dulbecco's Modified Eagle Medium (DMEM) supplemented with 10% w/w Tetracycline-free fetal bovine serum (FBS) and 250 μg/mL Zeocin. Clones were analyzed for expression of progesterone receptor isoform B protein in the presence and absence of 10 ng/mL doxycycline (Sigma Cat #D9891), and a single doxycycline-inducible clone (hereinafter “SC”) was selected for use in downstream assays.
(§3) The SC cells were seeded on poly-D-lysine coated, black clear-bottom 384-well plates at 2500/well, in 25 μL Phenol Red Free Dulbecco's Modified Eagle Medium (DMEM) supplemented with 10% w/w charcoal-dextran treated fetal bovine serum (FBS) and 1% w/w pen-strep, with or without 10 ng/mL doxycycline. Pen-Strep is a commercially available mixture of penicillin G and streptomycin, which is used in mammalian cell culture media to prevent bacterial contamination. Phenol Red Free Dulbecco's Modified Eagle Medium (DMEM) supplemented with 10% w/w charcoal-dextran treated fetal bovine serum (FBS) and 1% w/w pen-strep, with or without 10 ng/mL doxycycline is herein referred to as Treatment Medium. Following seeding of cells in the plates, the plates were spun at 300×g for 30 seconds, then equilibrated to room temperature for 30 minutes, and then deposited in a humidified tissue culture incubator maintained at 37° C. with 5% CO2.
(§4) At 24 hours after seeding of the cells, dilutions of test compound were prepared in DMSO and dissolved in Treatment Medium, to achieve a final DMSO concentration of 0.5% w/w, thereby providing the Test Compound Solution. A 25 μL aliquot of the Test Compound Solution was added to cells in the well plates. An equal volume of a solution containing DMSO and Treatment Medium was used as a negative control. Following treatment of cells with Test Compound Solution or said equal volume of a solution containing DMSO and Treatment Medium, the plates were spun at 300×g for 30 seconds, and then left in an incubator for 72 hours.
(§5) At the end of the treatment duration, cell viability was quantified with CellTiter-Glo 2.0 reagent (Promega Cat #G9243). For this purpose, plates were equilibrated to room temperature for 30 minutes, and then 25 μL of CellTiter-Glo 2.0 reagent was added to cells in the plate wells. Plates were then agitated on a shaker for two minutes at 500 rpm and subsequently incubated at room temperature for 10 minutes. Following incubation, the plates were spun at 3000×g for 30 seconds, then sealed with an optical adhesive cover, and luminescence readings were measured with an EnVision Plate Reader (Perkin Elmer).
(§6) Data was normalized using zero luminescence for baseline. A four-parameter non-linear regression curve fit was applied to dose-response data in GraphPad Prism data analysis software to determine the half-maximal growth inhibitory concentration (GI50) for each test compound.

[2] = system: T-Rex 293 cell line SC cells lacking increased expression of progesterone receptor isoform B protein; assay: Cellular growth inhibition, T-Rex 293 SC cells without doxycycline; details: not exposed to doxycycline, 72 hours, CellTiter-Glo 2.0
Experimental: as §1, §2, §3, §4, §5, §6

[3] = system: T-Rex 293 cell line SC3 cells having increased expression of androgen receptor protein; assay: Cellular growth inhibition, T-Rex 293 SC3 cells with doxycycline (increased androgen receptor expression); details: with 10 ng/mL doxycycline (increased androgen receptor), 72 hours, CellTiter-Glo 2.0
In short: (§7)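 Growth inhibition is measured in an inducible AR-expressing T-Rex 293 clone, SC3, cultured with or without 10 ng/mL doxycycline in hormone-depleted medium. Test compounds are applied for 72 hours. GI50 values derive from CellTiter-Glo 2.0 signal fitted by four-parameter regression.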

[4] = system: T-Rex 293 cell line SC3 cells lacking increased expression of androgen receptor protein; assay: Cellular growth inhibition, T-Rex 293 SC3 cells without doxycycline; details: not exposed to doxycycline, 72 hours, CellTiter-Glo 2.0
In short: as §7

T47D cells = assay: Cellular growth inhibition assay for T47D cells; details: Homo sapiens, 72 hours, CellTiter-Glo 2.0
In short: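 Growth inhibition as GI50, fitted with four parameters to CellTiter-Glo luminescence after 72 h of compound exposure (0.5% DMSO). Cells were T47D, grown in insulin-supplemented (0.2 units/mL) DMEM with 10% FBS and treated one day post-seeding.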

GI50 (T47D cells): 500 to 1500 nM
Structure (SMILES): CC1(C)[C@H](NC(=O)c2cnc(N3CCC(OCCOCCOCCNS(=O)(=O)c4ccc(Nc5ncc(Br)c(Nc6cccc(F)c6C(N)=O)n5)cc4)CC3)nc2)C(C)(C)[C@H]1Oc1ccc(C#N)c(Cl)c1 [Compound I-14]
GI50 [1]: > 3000 nM | GI50 [2]: > 3000 nM | GI50 [3]: > 3500 nM | GI50 [4]: > 3500 nM
